Test results reported in ChEMBL document CHEMBL5352429, “Designed symmetrical β-hairpin peptides for treating multidrug-resistant salmonella typhimurium infections” (Eur J Med Chem, 2022).
In brackets after ≈: the same amount, converted by molar mass. Activity calls are given as the source filed them. No cut-off for these calls is given here. Peptide text beside a SMILES is read from it.

What was measured:
Salmonella paratyphi = assay: Antibacterial activity against Salmonella paratyphi A CICC 21501 incubated overnight by standard microtiter dilution method; type: functional, Salmonella enterica subsp. enterica serovar Paratyphi A; details: Salmonella enterica
[1] = Antibacterial activity against Salmonella enterica subsp. enterica serovar Choleraesuis ATCC 13312 incubated overnight by standard microtiter dilution method; type: functional
[2] = Antibacterial activity against Salmonella wandsworth CICC 21504 incubated overnight by standard microtiter dilution method; type: functional, Salmonella enterica subsp. enterica serovar Wandsworth; details: Salmonella enterica
Salmonella typhimurium [3] = assay: Antibacterial activity against Salmonella typhimurium CICC 21483 incubated overnight by standard microtiter dilution method; type: functional, Salmonella enterica subsp. enterica serovar Typhimurium; details: Salmonella enterica
Salmonella typhimurium [4] = assay: Antibacterial activity against Salmonella typhimurium CICC 21913 incubated overnight by standard microtiter dilution method; type: functional, Salmonella enterica subsp. enterica serovar Typhimurium; details: Salmonella enterica
[5] = Antibacterial activity against Salmonella blockley CICC 21489 incubated overnight by standard microtiter dilution method; type: functional, Salmonella enterica subsp. enterica serovar Blockley; details: Salmonella enterica
Salmonella typhimurium [6] = assay: Antibacterial activity against Salmonella typhimurium DT104 in the presence of NaCl by MH broth based assay; type: functional, Salmonella enterica subsp. enterica serovar Typhimurium; details: Salmonella enterica
Salmonella typhimurium [7] = assay: Antibacterial activity against Salmonella typhimurium DT104 in the presence of NH4Cl by MH broth based assay; type: functional, Salmonella enterica subsp. enterica serovar Typhimurium; details: Salmonella enterica
Salmonella typhimurium [8] = assay: Antibacterial activity against Salmonella typhimurium DT104 in the presence of CaCl2 by MH broth based assay; type: functional, Salmonella enterica subsp. enterica serovar Typhimurium; details: Salmonella enterica
Salmonella typhimurium [9] = assay: Antibacterial activity against Salmonella typhimurium DT104 in the presence of FeCl3 by MH broth based assay; type: functional, Salmonella enterica subsp. enterica serovar Typhimurium; details: Salmonella enterica
[10] = Hemolytic activity in human Red blood cells assessed as hemolysis at 128 ug/ml incubated for 1 hrs by absorbance based microplate reader analysis relative to control; type: toxicity, cell-based, Erythrocyte; details: red blood cells (erythrocytes), at 128 µg/mL, read-out: Activity
Salmonella typhimurium [11] = assay: Antibacterial activity against multi-drug resistant Salmonella typhimurium DT104 assessed as inhibition of bacterial growth measured upto 120 mins by MH agar based serial dilution method; type: functional, organism-based; details: Salmonella enterica subsp. enterica serovar Typhimurium
Salmonella typhimurium [12] = assay: Antibacterial activity against Salmonella typhimurium DT104 infected in mouse RAW264.7 cells assessed as bacterial killing at 1 times of MIC measured after 90 mins by MH agar based serial dilution method relative to control; type: functional, Salmonella enterica subsp. enterica serovar Typhimurium; details: 1.5 h
Salmonella typhimurium [13] = assay: Antibacterial activity against Salmonella typhimurium DT104 infected in mouse RAW264.7 cells assessed as reduction in bacterial cells at 1 times of MIC measured for 180 mins by MH agar based serial dilution method; type: functional, organism-based; details: Salmonella enterica subsp. enterica serovar Typhimurium
[14] = Cytotoxicity against mouse RAW264.7 cells infected with Salmonella typhimurium DT104 assessed as cell viability at 1 times of MIC measured at 180 min by MTT assay; type: toxicity, cell-based; details: RAW264.7 cells infected with Salmonella typhimurium DT104, read-out: Activity
RAW264.7 [15] = assay: Anti-inflammatory activity in mouse RAW264.7 cells assessed as inhibition of LPS-induced TNF-alpha mRNA expression at 15 ug/ml preincubated with compound for 30 mins followed by LPS stimulation and measured after 4 hrs by RT-PCR analysis; type: functional, cell-based; details: dose 15.0 µg/ml, time 4.5 hrs
RAW264.7 [16] = assay: Anti-inflammatory activity in mouse RAW264.7 cells assessed as inhibition of LPS-induced IL-8 mRNA expression at 15 ug/ml preincubated with compound for 30 mins followed by LPS stimulation and measured after 4 hrs by RT-PCR analysis; type: functional, cell-based; details: dose 15.0 µg/ml, time 4.5 hrs
RAW264.7 [17] = assay: Anti-inflammatory activity in mouse RAW264.7 cells assessed as inhibition of LPS-induced IL-10 mRNA expression at 15 ug/ml preincubated with compound for 30 mins followed by LPS stimulation and measured after 4 hrs by RT-PCR analysis; type: functional, cell-based; details: dose 15.0 µg/ml, time 4.5 hrs
RAW264.7 [18] = assay: Anti-inflammatory activity in mouse RAW264.7 cells assessed as inhibition of LPS-induced IL-4 mRNA expression at 15 ug/ml preincubated with compound for 30 mins followed by LPS stimulation and measured after 4 hrs by RT-PCR analysis; type: functional, cell-based; details: dose 15.0 µg/ml, time 4.5 hrs
RAW264.7 [19] = assay: Inhibition of LPS-stimulated NO production in mouse RAW264.7 cells incubated for 24 hrs by Griess reagent based analysis; type: functional, cell-based; details: dose 1-128 µg/ml
RAW264.7 [20] = assay: Inhibition of LPS-stimulated TNF-alpha production in mouse RAW264.7 cells at 1 to 128 ug/ml incubated for 24 hrs by ELISA analysis; type: functional, cell-based; details: dose 1-128 µg/ml
RAW264.7 [21] = assay: Inhibition of LPS-stimulated IL-8 production in mouse RAW264.7 cells at 1 to 128 ug/ml incubated for 24 hrs by ELISA analysis; type: functional, cell-based; details: dose 1-128 µg/ml
Salmonella typhimurium [22] = assay: Antibacterial activity against multi-drug resistant Salmonella typhimurium DT104 infected in ICR mouse model assessed as reduction in bacterial population in fecus at 2 mg/kg, ip administered for 3 days; type: functional, organism-based; details: Salmonella enterica subsp. enterica serovar Typhimurium, time 3.0 day
Salmonella typhimurium [23] = assay: Antibacterial activity against Salmonella typhimurium DT104 infected in ICR mouse model assessed as body weight gain at 2 mg/kg, ip administered for 3 days and measured from day 4 to day 7; type: functional, organism-based; details: Salmonella enterica subsp. enterica serovar Typhimurium, time 7.0 day
Salmonella typhimurium [24] = assay: Antibacterial activity against Salmonella typhimurium DT104 infected in ICR mouse model assessed as reduction in bacterial translocation to liver at 2 mg/kg, ip administered for 3 days and measured on day 7 by serial dilution method; type: functional, organism-based; details: Salmonella enterica subsp. enterica serovar Typhimurium, time 7.0 day
Salmonella typhimurium [25] = assay: Antibacterial activity against Salmonella typhimurium DT104 infected in ICR mouse model assessed as reduction in bacterial translocation to spleen at 2 mg/kg, ip administered for 3 days and measured on day 7 by serial dilution method; type: functional, organism-based; details: Salmonella enterica subsp. enterica serovar Typhimurium, time 7.0 day
Salmonella typhimurium [26] = assay: Antibacterial activity against Salmonella typhimurium DT104 assessed as reduction in TNF-alpha mRNA level in ileum at 20 mg/kg, ip administered for 3 days and measured on day 7 by RT-PCR analysis; type: functional, organism-based; details: Salmonella enterica subsp. enterica serovar Typhimurium, time 7.0 day
Salmonella typhimurium [27] = assay: Antibacterial activity against Salmonella typhimurium DT104 assessed as reduction in IL-1beta production in serum at 20 mg/kg, ip administered for 3 days and measured on day 7; type: functional, organism-based; details: Salmonella enterica subsp. enterica serovar Typhimurium, time 7.0 day
Salmonella typhimurium [28] = assay: Antibacterial activity against Salmonella typhimurium DT104 assessed as increase in ZO-1 mRNA level in colon at 20 mg/kg, ip administered for 3 days and measured on day 7 by RT-PCR analysis; type: functional, organism-based; details: Salmonella enterica subsp. enterica serovar Typhimurium, time 7.0 day
Salmonella typhimurium [29] = assay: Antibacterial activity against Salmonella typhimurium DT104 assessed as increase in claudin mRNA level in colon at 20 mg/kg, ip administered for 3 days and measured on day 7 by RT-PCR analysis; type: functional, organism-based; details: Salmonella enterica subsp. enterica serovar Typhimurium, time 7.0 day
Salmonella typhimurium [30] = assay: Antibacterial activity against Salmonella typhimurium DT104 infected in ICR mouse model assessed as increase in ZO-1 expression in villous at 20 mg/kg, ip administered for 3 days and measured on day 7 […] by immunohistochemistry analysis; type: functional, organism-based; details: Salmonella enterica subsp. enterica serovar Typhimurium, time 7.0 day
Salmonella typhimurium [31] = assay: Antibacterial activity against Salmonella typhimurium DT104 infected in ICR mouse model assessed as alleviation of intestinal mucosal damage at 20 mg/kg, ip administered for 3 days and measured on day 7 by H&E staining based analysis; type: functional, organism-based; details: Salmonella enterica subsp. enterica serovar Typhimurium, time 7.0 day
Cell membrane [32] = assay: Disruption of membrane integrity in Salmonella typhimurium DT104 assessed as increase in red fluorescence at 1 times of MIC incubated for 60 mins by PI and SYTO9 staining based confocal laser scanning microscopic analysis; type: subcellular; details: Salmonella enterica subsp. enterica serovar Typhimurium
Cell membrane [33] = assay: Induction of membrane damage in Salmonella typhimurium DT104 assessed as membrane creping at 1 times of MIC incubated for 60 mins by atomic force microscopic analysis; type: subcellular; details: Salmonella enterica subsp. enterica serovar Typhimurium
Cell membrane [34] = assay: Induction of membrane damage in Salmonella typhimurium DT104 assessed as membrane stunting at 1 times of MIC incubated for 60 mins by atomic force microscopic analysis; type: subcellular; details: Salmonella enterica subsp. enterica serovar Typhimurium

SMILES: C[C@@H](O)[C@H](NC(=O)[C@H](CS)NC(=O)[C@H](CCCCN)NC(=O)[C@H](Cc1c[nH]c2ccccc12)NC(=O)[C@H](CCCCN)NC(=O)[C@@H](N)Cc1c[nH]c2ccccc12)C(=O)N[C@@H](CCCCN)C(=O)N[C@@H](CO)C(=O)NCC(=O)N[C@@H](CS)C(=O)N[C@@H](CCCCN)C(=O)N[C@@H](Cc1c[nH]c2ccccc12)C(=O)N[C@@H](CCCCN)C(=O)N[C@@H](Cc1c[nH]c2ccccc12)C(N)=O (H-WKWKCTKSGCKWKW-NH2)
- MIC (Salmonella paratyphi): 8 µg/mL (≈ 4.31 µM)
- MIC [1]: 1 µg/mL (≈ 0.539 µM)
- MIC [2]: 8 µg/mL (≈ 4.31 µM)
- MIC (Salmonella typhimurium [3]): 4 µg/mL (≈ 2.16 µM)
- MIC (Salmonella typhimurium [4]): 8 µg/mL (≈ 4.31 µM)
- MIC [5]: 8 µg/mL (≈ 4.31 µM)
- MIC (Salmonella typhimurium [6]): 4 µg/mL
- MIC (Salmonella typhimurium [7]): 4 µg/mL
- MIC (Salmonella typhimurium [8]): 8 µg/mL
- MIC (Salmonella typhimurium [9]): 8 µg/mL
- hemolysis at 1 h, 128 ug/ml [10]: < 10%
- Activity (Salmonella typhimurium [11]): Dose-Dependent Effect
- Activity (Salmonella typhimurium [12]): >99.9%
- Activity (Salmonella typhimurium [13]): Active
- viability at 3 h, 1 times of MIC [14]: > 90%
- inhibition (RAW264.7 [15]): Active
- inhibition (RAW264.7 [16]): Active
- inhibition (RAW264.7 [17]): Active
- inhibition (RAW264.7 [18]): Active
- inhibition (RAW264.7 [19]): Dose-Dependent Effect
- inhibition (RAW264.7 [20]): Active
- inhibition (RAW264.7 [21]): Active
- Activity (Salmonella typhimurium [22]): Active
- Activity (Salmonella typhimurium [23]): Active
- Activity (Salmonella typhimurium [24]): Active
- Activity (Salmonella typhimurium [25]): Active
- Activity (Salmonella typhimurium [26]): Active
- Activity (Salmonella typhimurium [27]): Active
- Activity (Salmonella typhimurium [28]): Active
- Activity (Salmonella typhimurium [29]): Active
- Activity (Salmonella typhimurium [30]): Active
- Activity (Salmonella typhimurium [31]): Active
- Activity (Cell membrane [32]): Active
- Activity (Cell membrane [33]): Active
- Activity (Cell membrane [34]): Active
